Assay results: patent publication US20260234164A1, “BIPHENYL COMPOUND AS IMMUNOMODULATOR, PREPARATION METHOD THEREFOR AND USE THEREOF” (SHENZHEN CHIPSCREEN BIOSCIENCES CO., LTD., priority 2021, published 2026)

Key:
[1] = Pharmacokinetic assay after repeated oral administration; type: in vivo, B-hPD-1/hPD-L1 mice; details: female, B-hPD-1/hPD-L1, mouse; plasma, 50 mg/kg oral once a day, after administration on the 18th day
Experimental: Twenty-four female B-hPD-1/hPD-L1 mice aged 6-8 weeks were purchased from Biocytogen Jiangsu Gene Biotechnology Co., Ltd. The mice were randomly divided into 4 groups, 6 mice in each group. The test compounds were prepared in a vehicle containing 5% DMSO, 60% PEG400 and 35% purified water, including I-1 and 3 control molecules Example 17, Compound 14 (INCB086550), and Example 180. The compounds were administered orally at 50 mg/kg, once a day. The blood was collected alternately through the fundus venous plexus after the administration on the 18th day. The blood collection time points were 15 min, 30 min, 1 h, 2 h, 4 h, 8h, 24 h and 32h. About 0.1 mL of blood was collected in a centrifuge tube (anticoagulated with sodium heparin), and centrifuged at 5000 rpm for 5 min. Then the plasma was separated, and frozen at −20° C. for later detection. After the plasma samples were processed, the concentration of the compounds in the plasma was determined by liquid chromatography-mass spectrometry (LC-MS/MS). The pharmacokinetic parameters were calculated using Phoenix WinNonlin 7.0.

[2] = Tumor tissue distribution assay in MC38-PD-L1 tumor-bearing mice; type: in vivo, B-hPD-1/hPD-L1 humanized mice; details: 50 mg/kg oral once/day; for concentration at 4 h / concentration at 24 h: female, B-hPD-1/hPD-L1 humanized, mouse, tumor tissue
Excerpt: 16 B-hPD-1/hPD-L1 humanized female mice, aged 6-8 weeks were purchased from Biocytogen Jiangsu Gene Biotechnology Co., Ltd. After 1 week of adaptation, the mice were subcutaneously inoculated with MC38-PD-L1 cells at 2×10^6 cells/site. After the tumor grew to about […], the mice were divided into 4 groups, 4 mice in each group. The test compounds were formulated in a vehicle containing 5% DMSO, 60% PEG400 and 35% purified water, including I-1 and 3 control molecules Example 17, Compound 14 (INCB086550), and Example 180. The compounds were orally administered at 50 mg/kg, once/day. The blood and tumor tissue were collected 4 h and 24 h after administration on the 18th day. A certain amount of tissue was weighed, and added with phosphate-buffered saline (PBS) solution for homogenization. After the sample was processed, it was analyzed by LC-MS/MS to determine the concentration of the compound in plasma and tissue.

[3] = test system: PD-1/PD-L1-mediated T cell activation inhibitory signal; assay: CHO-PD-L1-CD3L / Jurkat-PD-1-NFAT co-culture luciferase reporter assay; type: cell-based; details: Homo sapiens, co-culture 6 h, read-out: EC50 blocking PD-1/PD-L1-mediated T cell activation inhibitory signal
Experimental: In order to detect the effect of the interaction between PD-1 and PD-L1 on T cell activation signals in the immune response, CHO-PD-L1-CD3L cells stably expressing human PD-L1 molecules and anti-CD3 single-chain antibody (ScFv) and Jurkat-PD-1-NFAT cells stably expressing human PD-1 molecule and NFAT reporter gene were constructed. When the two kinds of cells were co-incubated, the binding of anti-CD3ScFv on the surface of CHO cells and the membrane CD3 molecules of Jurkat cells would transmit an activation signal to Jurkat cells, but simultaneously, the binding of PD-L1 on the surface of CHO cells and PD-1 molecules on the surface of Jurkat cells would transmit an inhibitory signal inward to prevent expression of the luciferase reporter gene. When immune checkpoint antibodies or small molecule inhibitors were added, the binding of PD-1 and PD-L1 was blocked, the NFAT pathway activated by T cell activation signal mediated by cross-linking of CD3ScFv antibody and CD3 was no longer affected by the inhibitory signal, and the downstream luciferase reporter gene started to be expressed. A chemiluminescent signal proportional to reporter gene activation was detected by adding a catalytic substrate.
CHO-PD-L1-CD3L cells expressing human PD-L1 molecule and anti-CD3 single-chain antibody (ScFv) and Jurkat-PD-1-NFAT cells stably expressing human PD-1 molecule and NFAT reporter gene were independently constructed and provided by Dr. Chen Bo (KeyMed Bioscience (Chengdu) Co., Ltd.). Puromycin (Cat #540411) and Hygromycin B (Cat #V900372) for stable culture of transfected cells were purchased from Sigma, PMA (Cat #P1585) was purchased from Sigma, anti-human PD-L1 antibody (Cat #GMP-A066) was purchased from Novoprotein Company. Luciferase substrate solution (Cat #E6485) and luciferase-specific cell lysis solution 5× (Cat #E1531) were purchased from Promega. Fluorescence detection instrument Tecan (Spark 10M) was purchased from Switzerland Tecan Company.
(1) The day before the experiment, 100 μL of CHO-PD-L1-CD3L cells were inoculated in each well of a 96-well cell culture plate (about 4×10^4 cells/well) with a medium of DMEM/F12 containing 10% FBS, 8 μg/mL puromycin and 200 μg/mL hygromycin B, and cultured overnight at 37° C.
(2) The test compounds were diluted with 0.1% PBST into different concentration gradients, added into 96-well plates, and pre-incubated for 30 min. Jurkat-PD-1-NFAT cell count was adjusted to 2×10^5 cells/mL with the RPMI 1640 complete medium containing 10% FBS, […]8 μg/mL puromycin and 200 μg/mL hygromycin B. 100 ng/mL PMA (the stock solution was prepared with DMSO to a concentration of 10 mg/mL) was added to amplify T cell activation signal. 100 μL of the above Jurkat-PD-1-NFAT cells was added to each well of the 96-well plate for co-culture.
(3) When detecting the reaction, a control group was provided, including a solvent control without adding test compounds and a positive control with addition of anti-human PD-1 antibody as the experimental system. All detections were performed with duplicates.
(4) After continuous incubation at 37° C. for 6 h, 40 μL of 5× cell lysate was directly added, and mixed well. The plate was placed at room temperature for 10 min to completely lyse the cells. 50 μL of the lysed cell solution was transferred to a fluorescence detection plate, and added with 30 μL of luciferase substrate solution. The chemiluminescence detection program on the fluorescence detector was immediately selected for detection.
(5) The inhibition rate of T cell activation signal at the cellular level of the test compounds was calculated as follows: Inhibition rate of T cell activation signal (%)=(the original value of chemiluminescence in the detection well−solvent control)/(the highest original value of chemiluminescence detected in the compound detection well−solvent control)×100%. […]

[4] = clinical studies; cited from earlier work
[5] = 4 h after administration on the 18th day
[6] = 24 h after administration on the 18th day

Row | AUC(0-t) [1] [µg·h/mL] | MRT [1] [h] | half-life [1] [h] | Ratio of I-1 to control molecule (tumor tissue concentration) [2, 5] | Ratio of I-1 to control molecule (tumor tissue concentration) [2, 6] | concentration at 4 h [2, 5] [ng/g] | concentration at 24 h [2, 6] [ng/g] | EC50 [3] [µM] | Compound | T1/2 [4] [h]
1 | 15.8 | 5.1 | 3.9 | 5.9 | 7.6 | 6600 | 3600 |  | Cc1c(Nc2nccc3cc(CN4CC[C@@H](O)C4)cnc23)cccc1-c1cccc(-c2nc3cc(CN4CC[C@@H](C(=O)O)C4)cc(C#N)c3o2)c1C [Compound 14 (INCB086550)] | 
2 |  |  |  |  |  |  |  | 0.0189 | [2H]c1c([2H])c(NC(=O)c2nc3c(n2C)CCN(CCC24CCC(COC)(CC2)C4)C3)c(F)c(-c2c([2H])c([2H])c([2H])c(NC(=O)c3nc4c(n3C)CCN(CCC35CCC(C(=O)O)(CC3)C5)C4)c2Cl)c1[2H] [Compound I-15, 4-(2-(2-((2-chloro-2′-fluoro-3′-(5-(2-(4-(methoxymethyl)bicyclo[2.2.1]heptane-1-yl)ethyl)-1-methyl-4,5,6,7-tetrahydro-1H-imidazo[4,5-c]pyridine-2-carboxamido)-[1,1′-biphenyl]-3-yl-4,4′,5,5′,6,6′-d6)carbamoyl)-1-methyl-1,4,6,7-tetrahydro-5H-imidazo[4,5-c]pyridin-5-yl)ethyl)bi cyclo[2.2.1]heptane-1-carboxylic acid] | 
3 | 67.4 | 5.8 | 4.2 | 7.8 | 27.2 | 5000 | 1000 |  | Cn1c(C(=O)Nc2cccc(-c3cccc(NC(=O)c4nc5c(n4C)CCN(CCC46CCC(C(=O)O)(CC4)C6)C5)c3Cl)c2Cl)nc2c1CCN(CCC13CCC(C(=O)O)(CC1)C3)C2 [Example 17] | 
4 | 33.7 | 5.6 | 3.8 | 8.7 | 30.2 | 4500 | 900 |  | Cn1c(C(=O)Nc2cccc(-c3cccc(NC(=O)c4nc5c(n4C)CCN(CC46CCC(C(=O)O)(CC4)C6)C5)c3Cl)c2Cl)nc2c1CCN(CCO)C2 [Example 180] | 
5 |  |  |  |  |  |  |  |  | atezolizumab: PD-1/PD-L1 antibody drug | 648
6 |  |  |  |  |  |  |  |  | nivolumab: PD-1/PD-L1 antibody drug | 605
7 |  |  |  |  |  |  |  |  | pembrolizumab: PD-1/PD-L1 antibody drug | 600
